{"source": "patent US20070110726A1", "about": "“Rust disease control by Aphanocladium album and/or Beauveria brongniartii” (priority 2005, published 2007)", "key": {"K-562 cells": {"tested_on": "K-562 cells", "assay": "MTS cytotoxicity assay", "type": "cell-based", "conditions": "3 days exposure", "source_text": "di-Methylthiozol Tetrazolium (MTT assay): Proliferation assays are used in cell biology for the study of growth factors, cytokines and cytotoxic agents. There are several ways to measure the number of cells in a proliferation assay. MTT assay is a rapid and convenient method of determining viable cells in proliferation, cell attachment, chemotaxis and apoptosis assays.\ndi-Methylthiozol Tetrazolium Salt (MTS assay): MTS assay is a rapid and convenient method of determining viable cells in proliferation or cytotoxic assays. The use of this analog of MTT, provides a stable reaction over time. MTS assay is based on the cellular conversion of a tetrazolium salt into a formozan product that is soluble in tissue culture media and can easily be detected using a 96-well plate reader. This conversion is presumably accomplished by NADPH or NADH produced by dehydrogenases enzymes present in metabolically active cells. MTS is preferred over MTT because the MTS formazan product is soluble in tissue culture medium. In addition the MTS assay require fewer steps than MTT assay. Consequently, we have used MTS for our testing. MTS assay-Method: K-562 (typical cancer cell line used for cytotoxicity assays) cells were seeded in 96-well plates at a concentration of 2.5×10^4 cells/ml. Oosporein and Actinomycin D (a known cytotoxic compound) were prepared in 10% DMSO and added to cells the next day (final DMSO concentration was 0.5%). Oosporein was assessed at a final concentration on the cells of 100, 50, 25, 12.5, 6.25 and 3.125 μg/ml (2-fold dilutions) in quadruplicate. A known toxic agent, Actinomycin D, was added at 100, 20, 4, 0.8 and 0.16 ng/ml (5-fold dilutions). After 3 days exposure to test compound or controls, MTS reagent was prepared and added to the cells. After 3 hours, the accumulation of formazan product was determined by measuring the absorbance at 490 nm. The background absorbance of the cells detected at 630 nm was then subtracted from the initial 490 nm reading. Percent toxicity was determined using the following formula: [formula] [formula] […]"}, "[1]": {"tested_on": "strain NC of Puccinia coronata", "assay": "Greenhouse experiment, pure compound Oosporein sprayed on inoculated oat seedlings (telia induction)", "type": "in vivo, Puccinia coronata on oat (cv. Brooks) seedlings", "conditions": "table title strain NC (method text: strain MN); for Percentage of plants with telia: oat cv. Brooks seedlings, pure compound at 100 μg/ml applied four days after inoculation, mean of five replicates; for Telia intensity Rating: scale 0 = healthy to 3.0 = >15% of leaf area with telia, pure compound 100 μg/ml", "procedure": "iv) Both crude extracts and fractions were tested at 10 mg/ml and the pure compound at 100 μg/ml\n1.c. Greenhouse Experiments with the Pure Compound, Oosporein Isolated from of A. album (Aa 100 Isolate):\nThe pure compound (Oosporein) isolated from A. album (Aa 100) dissolved in 500 μl of DMSO and 9.5 ml of sterile distilled water (SDW) with 20 μl of Tween 80. The controls consisted of 500 μl of DMSO in 9.5 ml of SDW with 20 μl of Tween 80. and 10 ml of SDW with 20 μl of Tween 80. Ten ml of each treatment were atomized on 2-3 week-old, oat seedlings previously inoculated with strain MN of Puccinia coronata. Treatments were applied four days after inoculation when flecking symptoms of infection were present, but before uredia were observed (FIG. 1). There were five replicates of each treatment arranged in a randomized complete block design."}, "rusts": {"tested_on": "rusts", "assay": "Conversion of infective urediniospores to non-infective teliospores in rusts"}}, "note": "Starred links: 1 amine or outer side, 2 acyl side, 3 side chain; linkers in the order of their positions; H or OH if unused. Positions of bridges follow the written chain, without caps; N, C: chain ends. Non-standard residues stand in square brackets, D forms with d. Residues, ends and D or L forms follow the SMILES beside them. Chains are numbered I, II in the order given. Actinocin(9to1) = Cc1c2oc3c(C)ccc(C(=O)[*:1])c3nc-2c(C(=O)[*:2])c(N)c1=O; NMeV = CN[C@H](C(=O)O)C(C)C; Sar = CNCC(=O)O"}
{"compound": "Cc1c2oc3c(C)ccc(C(=O)N[C@@H]4C(=O)N[C@H](C(C)C)C(=O)N5CCC[C@H]5C(=O)N(C)CC(=O)N(C)[C@@H](C(C)C)C(=O)O[C@@H]4C)c3nc-2c(C(=O)N[C@@H]2C(=O)N[C@H](C(C)C)C(=O)N3CCC[C@H]3C(=O)N(C)CC(=O)N(C)[C@@H](C(C)C)C(=O)O[C@@H]2C)c(N)c1=O", "note": "[Actinomycin D, reference compound] (I: T[dV]P[Sar][NMeV] / II: T[dV]P[Sar][NMeV]; ester I:1-I:C, II:1-II:C; linker I:N-II:N via Actinocin(9to1))", "values": [{"measurement": "Percent toxicity on K-562 cells", "setting": "K-562 cells; 100 ng/ml", "value": "~100", "unit": "%"}]}
{"compound": "CC1=C(O)C(=O)C(C2=C(O)C(=O)C(C)=C(O)C2=O)=C(O)C1=O", "note": "[Oosporein]", "values": [{"measurement": "toxicity on K-562 cells", "setting": "K-562 cells; 25 μg/ml or less", "value": "no toxicity whatsoever"}, {"measurement": "toxicity on K-562 cells", "setting": "K-562 cells; 100 and 50 μg/ml", "value": "very mild toxicity"}, {"measurement": "Percentage of plants with telia", "setting": "[1]", "value": 83, "unit": "%"}, {"measurement": "Percentage of plants with telia", "setting": "[1]; listed as Ooosporein", "value": "higher percentage of plants with telia"}, {"measurement": "Telia intensity Rating", "setting": "[1]", "value": 8.2}, {"measurement": "Telia intensity Rating", "setting": "[1]; listed as Ooosporein", "value": "greater intensity of telia"}, {"measurement": "time to conversion of infective urediniospores to non-infective teliospores", "setting": "rusts; after application", "value": "with in three days of application"}, {"measurement": "conversion of infective urediniospores to non-infective teliospores", "setting": "rusts; oat, bareley, wheat, pine and soybean rust", "value": "convert infective urediniospores to non-infective teliospores"}]}
